Test results: US20030203963A1, “Antimicrobial agent” (priority 2001, published 2003)

Assays:
Bacillus cereus 204 = test: Well diffusion test; format: cell-based; conditions: 20 μl of 49.3 mg/ml (4.9%) APP sample E002012
Method: (§1) Seeded 10 ml agar plates of various test organisms were prepared, with inoculation of either 20 μl spore suspension or overnight broth. This gave an inoculum level of ca. 10^5-10^6 cfu/ml. After the plates had set, small wells were cut, and 20 μl of APP sample was loaded. Plates were incubated overnight at appropriate temperature and examined after 1-2 days (after which microbial growth is clearly visible) for zones of inhibition.

[1] = system: Brochothrix thermosphacta CRA7883; test: Well diffusion test; format: cell-based; conditions: 20 μl of 49.3 mg/ml (4.9%) APP sample E002012
Method: as §1

[2] = system: Clostridium sporogenes Campden; test: Well diffusion test; format: cell-based; conditions: 20 μl of 49.3 mg/ml (4.9%) APP sample E002012
Method: as §1

Lactobacillus sake A10 = test: Well diffusion test; format: cell-based; conditions: 20 μl of 49.3 mg/ml (4.9%) APP sample E002012
Method: as §1

[3] = system: Listeria monocytogenes S23; test: Well diffusion test; format: cell-based; conditions: 20 μl of 49.3 mg/ml (4.9%) APP sample E002012
Method: as §1

Micrococcus luteus = test: Well diffusion test; format: cell-based; conditions: 20 μl of 49.3 mg/ml (4.9%) APP sample E002012
Method: as §1

[4] = system: Pseudomonas fluorescens 327; test: Well diffusion test; format: cell-based; conditions: 20 μl of 49.3 mg/ml (4.9%) APP sample E002012
Method: as §1

[5] = system: Saccharomyces carlsbergensis CRA6413; test: Well diffusion test; format: cell-based; conditions: 20 μl of 49.3 mg/ml (4.9%) APP sample E002012
Method: as §1

[6] = system: Saccharomyces cerevisiae ATCC 9763; test: Well diffusion test; format: cell-based; conditions: 20 μl of 49.3 mg/ml (4.9%) APP sample E002012
Method: as §1

B. cereus 204 = test: Chicken soup trial at 20° C.; format: cell-based, Bacillus cereus; conditions: chicken soup at 20° C., TCSM010430, APP20010213
Excerpt: (§2) A local supermarket brand of cream of chicken soup was used as a model food system. 600 g packs were purchased from the local supermarket. This was a ‘fresh home-made type’ of soup that was stored in the chill cabinet, with a short shelf life. It was chosen because it is a rich, nutritious food system containing a range of food components including meat, dairy and vegetable.
(§3) Ingredients were labelled as: chicken stock (water, duck fat, chicken, salt, flavourings, yeast extracts, pork gelatine, glucose syrup, vegetable concentrate, milk protein, sugar, malto-dextrin, vegetable oil, citric acid, lactose, chicken fat), ilk, chicken (9%), cream (8%), onion, potato, vegetable oil, modified maize starch, wheat flour, lemon juice, salt, white pepper. pH 5.912. Protein: 3.3%; carbohydrate: 4.7%; fat: 7.2%; fibre: 0.2%; sodium: 0.1%
(§4) For the test the soup was mixed 2:1 in water (to facilitate sampling and mixing) and sterilised by autoclaving at 121° C. for 15 minutes. For each experiment the pH of the soup was recorded; this was between pH 5.79-5.88.
For TCS010430/20 (incubated at 20° C.) samples were prepared in 18.8 g quantities, to which 1 g of a suitable filter-sterilised APP stock solution was added and an appropriately diluted 0.2 ml inoculum. Great care was again taken to ensure homogeneous distribution of the APP and micro-organisms. This test was sampled by viable count test on a daily basis.

Ps. fluorescens 3756 = test: Test in cooked minced beef slurry; format: cell-based, Pseudomonas fluorescens
Method: 1 kg of minced beef, purchased from the local butcher, was mixed with 1 litre of BHI. 200 g portion of this meat slurry was autoclaved. When the meat had cooled, the pH was recorded (pH 6.24), and each pot was inoculated with 2.0 ml of 10^5 spores or cells and the meat re-mixed thoroughly. Each inoculated 200 g pot was distributed as 3×50 g portions. To each pot 1 ml of SDW, 5% or 10% APP (Batch No. APP20010215) was added, and the meat was again mixed thoroughly. An initial viable count was performed, the meat was incubated at 8° C. and sampled twice weekly. The pH of the cooked minced beef slurry was 6.24.

Ps. fluorescens = test: Chicken soup at 8° C. (summary); format: cell-based, Pseudomonas fluorescens; conditions: Chicken soup at 8° C. pH 5.8
Excerpt: as §2, §3, §4
For TCS010412/8 (which was incubated at 8° C.), APP batch number APP20010213 (concentration 169 mg APP/ml) was used to prepare tests containing 0, 2000 or 4000 ppm APP. […]
For TCS010521/8 (incubated at 8° C.), samples were prepared in 27.8 g quantities. […]

O=C1CC(CO)OC=C1O (stereo not shown) [APP, Ascopyrone P]
Sensitivity in well diffusion (zones of inhibition) (Bacillus cereus 204): sensitive
Sensitivity in well diffusion (zones of inhibition) [1]: sensitive
Sensitivity in well diffusion (zones of inhibition) [2]: sensitive
Sensitivity in well diffusion (zones of inhibition) (Lactobacillus sake A10): sensitive
Sensitivity in well diffusion (zones of inhibition) [3]: sensitive
Sensitivity in well diffusion (zones of inhibition) (Micrococcus luteus): sensitive
Sensitivity in well diffusion (zones of inhibition) [4]: sensitive
Sensitivity in well diffusion (zones of inhibition) [5]: sensitive
Sensitivity in well diffusion (zones of inhibition) [6]: sensitive
Effect on growth (B. cereus 204; 500 ppm): No significant effect with 500 ppm
Effect on growth (B. cereus 204; 1000 ppm): Extension of lag with 1000 ppm
Total inhibition for (B. cereus 204; 2000 ppm): Total inhibition by 2000 ppm for >42 days.
Growth delayed by (Ps. fluorescens 3756; 1000 ppm, minced beef slurry at 8° C., pH 6.24, TCM010619): 1000 ppm delayed growth by 17 d
Total inhibition for (Ps. fluorescens 3756; 2000 ppm, minced beef slurry at 8° C., pH 6.24, TCM010619): Total inhibition by 2000 ppm for 27 d
Total inhibition (effect on growth of target organism by 2000 ppm APP) (Ps. fluorescens 3756; Cooked minced beef slurry at 8° C. pH 6.24): Ps. fluorescens
Total inhibition (effect on growth of target organism by 2000 ppm APP) (Ps. fluorescens): Ps. fluorescens
